Test results taken from patent publication US12649750B2, “Macrocyclic compounds, compositions, and methods of using thereof” (Sionna Therapeutics Inc., priority 2022, dated 2026).

Columns and labels:
NBD1 = target: T1, NBD1 (Homo sapiens, UniProt P13569); assay: Aggregation analysis using differential static light scattering (DSLS), thermal stability of NBD1 (ΔTagg); format: binding; settings: ΔTagg versus DMSO control, NBD1 0.2 mg/ml
T1 construct: Purified recombinant NBD1 was produced using previously described methods; made in house
T1 sequence (P13569 423-646 limits assumed): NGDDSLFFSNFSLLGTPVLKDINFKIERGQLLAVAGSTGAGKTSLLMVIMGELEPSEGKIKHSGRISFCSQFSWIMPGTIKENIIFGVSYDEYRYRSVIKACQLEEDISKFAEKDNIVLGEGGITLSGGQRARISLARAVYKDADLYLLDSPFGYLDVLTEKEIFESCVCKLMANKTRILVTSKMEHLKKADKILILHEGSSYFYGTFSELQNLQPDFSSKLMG
Procedure, shortened: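 Purified recombinant NBD1 at 0.2 mg/ml in Tris buffer pH7.6 with 2 mM ATP, 5 mM MgCl2, 2 mM DTT and 1% glycerol was mixed with DMSO-dissolved compounds under mineral oil. Plates were heated at 1° C. per minute to 70° C., light scattering imaged every 0.5° C.; Tagg from curve inflection, minus DMSO-control mean.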

CFTR = target: T2, CFTR (Homo sapiens, UniProt P13569, DEL508-508); assay: TECC24 AUC fold over DMSO @10 μM, CFTR-mediated transepithelial chloride transport in CF-HBE cells; format: cell-based; settings: test agent AUC divided by DMSO vehicle AUC, primary CF-HBE cells, ΔF508 homozygous donor, 48 hours incubation
T2 construct: Primary human bronchial epithelial cells from a ΔF508 homozygous CF donor; host or cells: primary human bronchial epithelial cells (CF-HBE), ΔF508 homozygous donor
T2 sequence (P13569 with tags, fused parts or gaps DEL508-508): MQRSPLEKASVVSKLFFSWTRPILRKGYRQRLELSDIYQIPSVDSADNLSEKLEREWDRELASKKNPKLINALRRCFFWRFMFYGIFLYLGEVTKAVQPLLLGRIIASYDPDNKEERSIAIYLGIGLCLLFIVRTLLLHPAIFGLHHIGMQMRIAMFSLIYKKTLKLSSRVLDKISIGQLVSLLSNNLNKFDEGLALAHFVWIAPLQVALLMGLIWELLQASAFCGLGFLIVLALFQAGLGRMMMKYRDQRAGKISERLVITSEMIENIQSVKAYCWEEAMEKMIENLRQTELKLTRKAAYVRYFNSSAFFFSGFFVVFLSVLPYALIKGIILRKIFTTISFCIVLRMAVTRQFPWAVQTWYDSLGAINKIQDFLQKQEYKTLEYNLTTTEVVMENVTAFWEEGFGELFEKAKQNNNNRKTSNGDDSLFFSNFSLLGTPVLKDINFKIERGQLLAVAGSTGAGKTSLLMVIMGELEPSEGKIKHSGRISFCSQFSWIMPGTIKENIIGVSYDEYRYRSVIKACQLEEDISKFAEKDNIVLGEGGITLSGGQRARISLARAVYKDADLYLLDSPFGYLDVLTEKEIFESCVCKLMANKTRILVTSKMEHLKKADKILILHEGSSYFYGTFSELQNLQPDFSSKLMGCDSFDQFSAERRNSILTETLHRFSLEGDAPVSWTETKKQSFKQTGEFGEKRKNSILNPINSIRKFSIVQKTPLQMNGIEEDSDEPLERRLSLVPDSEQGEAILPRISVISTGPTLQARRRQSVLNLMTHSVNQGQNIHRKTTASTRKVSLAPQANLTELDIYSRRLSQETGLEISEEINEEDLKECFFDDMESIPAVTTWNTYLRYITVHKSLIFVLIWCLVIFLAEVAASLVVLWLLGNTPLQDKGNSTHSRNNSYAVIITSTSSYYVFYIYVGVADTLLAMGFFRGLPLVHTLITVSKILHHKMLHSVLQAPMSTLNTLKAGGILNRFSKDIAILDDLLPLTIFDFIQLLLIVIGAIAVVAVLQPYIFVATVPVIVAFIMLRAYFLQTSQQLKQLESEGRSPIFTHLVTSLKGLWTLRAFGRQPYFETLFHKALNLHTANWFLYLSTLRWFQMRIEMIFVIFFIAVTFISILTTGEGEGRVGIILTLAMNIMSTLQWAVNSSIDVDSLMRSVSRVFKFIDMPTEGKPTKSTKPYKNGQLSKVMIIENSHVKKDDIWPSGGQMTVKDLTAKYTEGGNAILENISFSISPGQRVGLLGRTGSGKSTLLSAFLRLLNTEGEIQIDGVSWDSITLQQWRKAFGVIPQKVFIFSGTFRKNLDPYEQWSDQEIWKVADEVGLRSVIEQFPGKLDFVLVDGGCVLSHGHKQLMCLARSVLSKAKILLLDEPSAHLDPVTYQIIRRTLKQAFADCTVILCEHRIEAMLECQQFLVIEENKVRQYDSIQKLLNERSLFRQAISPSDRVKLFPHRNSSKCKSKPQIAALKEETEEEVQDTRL
Procedure, shortened: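 Value is ratio of test-agent to DMSO AUC of equivalent transepithelial Cl− current, integrated from forskolin (10 μM) stimulation to CFTR inhibitor-172 (20 μM) block, with benzamil 10 μM present. CF-HBE (ΔF508/ΔF508) cultures had 48 h compound exposure at 10 μM, 36.5° C before recording.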

| SMILES | DSLS 3D (100 μM ΔT) (NBD1) | TECC (AUC, 10 μM) (CFTR) |
| --- | --- | --- |
| Cn1nc2nc1-c1cc(ccc1F)Oc1c(F)cc3[nH]ccc3c1CCS(=O)(=O)CC(C)(C)CCCC2(C)c1cccc(/C=C2\CCOC2=O)c1 (stereo not drawn) [Compound 172, (3E)-3-[[3-(22,28-Difluoro-3,6,10,10-tetramethyl-12,12-dioxo-24-oxa-12λ6-thia-3,4,19,30-tetrazapentacyclo[23.3.1.12,5.015,23.016,20]triaconta-1(29),2(30),4,15,17,20,22,25,27-nonaen-6-yl)phenyl]methylene]tetrahydrofuran-2-one] | B (a value above 5 °C and less than or equal to 10 °C is marked “B”) | A (a TECC value less than 12 is marked “A”) |
| Cn1nc2nc1-c1cc(ccc1F)Oc1c(F)cc3[nH]ccc3c1CCS(=O)(=O)CC(C)(C)CCCC2(C)c1cccc(CC2CCOC2=O)c1 (stereo not drawn) [Compound 173, 3-[[3-(22,28-Difluoro-3,6,10,10-tetramethyl-12,12-dioxo-24-oxa-12λ6-thia-3,4,19,30-tetrazapentacyclo[23.3.1.12,5.015,23.016,20]triaconta-1(29),2(30),4,15,17,20,22,25,27-nonaen-6-yl)phenyl]methyl]tetrahydrofuran-2-one] | B (a value above 5 °C and less than or equal to 10 °C is marked “B”) | C (a value between 20 and 80 is marked “C”) |
| Cn1nc2nc1-c1cc(ccc1F)Oc1c(F)cc3[nH]ccc3c1CCS(=O)(=O)CC(C)(C)CCCC2(C)c1cccc(CC2NC(=O)NC2=O)c1 (stereo not drawn) [Compound 175, 5-[[3-(22,28-Difluoro-3,6,10,10-tetramethyl-12,12-dioxo-24-oxa-12λ6-thia-3,4,19,30-tetrazapentacyclo[23.3.1.12,5.015,23.016,20]triaconta-1(29),2(30),4,15,17,20,22,25,27-nonaen-6-yl)phenyl]methyl]imidazolidine-2,4-dione] | C (a value greater than 10 °C and less than or equal to 25 °C is marked “C”) | A (a TECC value less than 12 is marked “A”) |
| Cn1nc2nc1-c1cc(ccc1F)Oc1c(F)cc3[nH]ccc3c1CCS(=O)(=O)CC(C)(C)CCCC2(C)c1cccc(C(O)C2NC(=O)NC2=O)c1 (stereo not drawn) [Compound 176, 5-[[3-(22,28-Difluoro-3,6,10,10-tetramethyl-12,12-dioxo-24-oxa-12λ6-thia-3,4,19,30-tetrazapentacyclo[23.3.1.12,5.015,23.016,20]triaconta-1(29),2(30),4,15,17,20,22,25,27-nonaen-6-yl)phenyl]-hydroxy-methyl]imidazolidine-2,4-dione] | C (a value greater than 10 °C and less than or equal to 25 °C is marked “C”) | B (a value between 12-20 is marked “B”) |
| CCOC(=O)CC(O)c1cccc(C2(C)CCCC(C)(C)CS(=O)(=O)CCc3c(c(F)cc4[nH]ccc34)Oc3ccc(F)c(c3)-c3nc2nn3C)c1 (stereo not drawn) [Compound 177, Ethyl 3-[3-(22,28-difluoro-3,6,10,10-tetramethyl-12,12-dioxo-24-oxa-12λ6-thia-3,4,19,30-tetrazapentacyclo[23.3.1.12,5.015,23.016,20]-triaconta-1(29),2(30),4,15,17,20,22,25,27-nonaen-6-yl)phenyl]-3-hydroxy-propanoate] | B (a value above 5 °C and less than or equal to 10 °C is marked “B”) | C (a value between 20 and 80 is marked “C”) |
| Cn1nc2nc1-c1cc(ccc1F)Oc1c(F)cc3[nH]ccc3c1CCS(=O)(=O)CC(C)(C)CCCC2(C)c1cccc(C(O)CC(=O)O)c1 (stereo not drawn) [Compound 178, 3-[3-(22,28-Difluoro-3,6,10,10-tetramethyl-12,12-dioxo-24-oxa-12λ6-thia-3,4,19,30-tetrazapentacyclo[23.3.1.12,5.015,23.016,20]triaconta-1(29),2(30),4,15,17,20,22,25,27-nonaen-6-yl)phenyl]-3-hydroxy-propanoic Acid] | C (a value greater than 10 °C and less than or equal to 25 °C is marked “C”) | C (a value between 20 and 80 is marked “C”) |
